# Test results reported in US11110080B2, “Small molecule inhibitors of bacterial efflux pumps and methods of using same” (The Regents of the University of Colorado, a body Corporate, priority 2017, dated 2021).
# Assays:
# [1] = test system: S.Tm in RAW 264.7 macrophages; experiment: SAFIRE in the presence of a transcriptional (DRB) or translational (cycloheximide) inhibitor; format: cell-based, Salmonella enterica serovar Typhimurium; conditions: 100 μM DRB or 1 μM cycloheximide, no EPM
# Procedure: FIG. 13A depicts that RAWs were infected and treated with 25 μM of the indicated compounds using SAFIRE. From 2-18 hours post-infection, cells were treated with DMSO, 100 μM DRB, or 1 μM cycloheximide (CHX). Data for each inhibitor (DRB, CHX) treatment are normalized to cells not treated with EPMs, as differences in basal infection were observed (FIG. 10). Data are mean+SEM of three independent biological replicates, each performed in triplicate. FIG. 13B depicts that RAWs were seeded in 6-well dishes and treated in parallel with FIG. 13A. RNA was extracted at the indicated timepoints, reverse transcribed, and expression of the indicated genes was determined using qPCR. Data shown are mean+SEM of four separate wells from one replicate, and were performed in parallel with one replicate of (A). ****p<0.0001 compared to uninfected by two-way ANOVA with Dunnett's post-test.
# Therefore, the question was whether the EPMs require host transcription or translation of AMPs or other factors, for antimicrobial activity. SAFIRE was performed in the presence of a transcriptional (DRB) or translational (cycloheximide) inhibitor (FIG. 13). Since exposure to inhibitors prior to infection greatly diminished macrophage viability, DRB or cycloheximide was added 2 hours post-infection, concurrently with EPMs. […]
# bacterial outer membrane = experiment: Nitrocefin access to the periplasm (outer membrane permeability); format: cell-based, Salmonella
# Procedure: (§1) FIGS. 20A and 20B depict Bacteria treated with DMSO or EPMs [100 μM] but not CCCP [1 mM] acquire TMRM staining within 30 minutes. FIG. 20A depicts representative data from one of three independent experiments. FIG. 20B depicts median fluorescence intensity from three experiments normalized to unstained control (0). FIG. 20C depicts disk diffusion assays; the radius of the zone of growth inhibition after 16 hours of exposure to compound across a dose range. Black lines, semilog fit for the combined antibiotic data; gray lines, semilog fit for CCCP and PAβN; dotted line, limit of detection (disk radius). Average of two measurements from each image captured from one experiment representative of two independent experiments. FIGS. 20D and 20E depict nitrocefin access to the periplasm as monitored by nitrocefin [100 μM] hydrolysis in the presence of the indicated concentrations of compounds. FIG. 20D depicts absorbance 486 nm of bla+ Salmonella normalized to bla− Salmonella. Data is representative of 3-4 independent biological replicates. FIG. 20E depicts slope of the linear region of the A486 plot from at least three experiments. Data is normalized to A486/minute. *p<0.05, ***p<0.001, ****p<0.0001 by one-way ANOVA with Dunnett's post-test. […]
# [2] = Freeze-thaw sensitivity of DMSO solution, read out by SAFIRE; format: physicochemical; conditions: 25 μM; freeze thawed 20 times vs freshly dissolved
# Procedure: SAFIRE was used to quantify infection of macrophages treated with 25 μM nalidixic acid that was cherry-picked from the plates used to perform the screen (n=2), freshly dissolved in DMSO (n=3), or freshly dissolved and freeze thawed 20 times (n=3). Data are mean+SEM.
# [3] = test system: Salmonella enterica serovar Typhimurium (S.Tm) within RAW 264.7 murine macrophages; experiment: SAFIRE: fluorescence microscopy assay of S.Tm load within macrophages; format: cell-based
# Procedure: A high-content, high-throughput fluorescence microscopy-based screening platform to assay S.Tm load within macrophages was developed (FIG. 1A). RAW 264.7 murine macrophages, a widely used cell line for bacterial infection studies, were infected with bacteria in a standard gentamicin protection assay. The Salmonella expressing GFP driven by the sifB promoter was incubated with the compound beginning at 2 hours post-infection. At 18 hours post-infection, cells were stained with MitoTracker Red CMXRos as a marker of macrophage vitality and processed for fluorescence microscopy. Stained with DAPI. A MATLAB®-based algorithm was developed to quantify infection (FIG. 1B) and compared to statistics to describe infection. Percentage of infected cells was determined by counting the proportion of macrophages within an image with at least 2 GFP+ pixels. Infection area was calculated by normalizing the number of GFP+ pixels within a cell to the cell's total area, then averaging across all cells in an image. To evaluate the approach, 2 μg/ml rifampicin in 96-well and 384-well plates was tested in three independent replicates. The Z′-factor was employed as a measure of assay reproducibility. Numbers close to 1 indicated high reproducibility. For percentage of infected macrophages, the Z′-factor was 0.59 and 0.48 in 96-well and 384-well plates, respectively, compared with 0.66 and 0.38 for infection area. The optimal Z′-factor threshold for high-throughput screening was 0.5; however, values above 0 were considered marginal but feasible. Therefore, the percentage of infected macrophages statistic was used.
# The 14,400 compound library Maybridge HitFinder™ v11 was screened, which has been extensively screened against mammalian and microbial targets. The library was screened in duplicate at 25 μM in 384-well plates (FIG. 1C). Data were normalized using the B-score method to remove positional variation. The significance of B-scores was calculated using a modified t-test assuming an inverse gamma distribution of variances. Using a dual threshold of B-score greater than 1 and standard deviation from the mean and p-value less than 0.05, 908 compounds (6.3%) were identified that decreased or increased the percentage of infected macrophages. […] Compounds that altered infection by at least 25% in 96-well plates were considered validated hits.
# For high-throughput screening and validation, 7×10^3 macrophages in 40 μL or 3×10^4 macrophages in 100 μL were seeded in 384- or 96-well black-walled, glass-bottomed plates (Brooks Automation). […] Forty-five minutes after bacterial addition, 20 or 50 μL gentamicin was added to a final concentration of 40 μg/mL. […] At 2 hours post-infection, 200 or 500 nL compound was added using a pin tool (CyBio) to yield a final concentration of 25 μM. Each assay plate included rifampicin and DMSO controls. In some experiments, media was removed and replaced with fresh medium containing 40 μg/mL gentamicin and the indicated concentrations of drugs. At 17.5 hours post-infection, PBS containing MitoTracker Red CMXRos (Life Technologies) was added to yield a final concentration of 300 nM (384-well) or 100 nM (96-well). Thirty minutes later, 16% paraformaldehyde was added to a final concentration of 1-2% and incubated at room temperature for 15 minutes. Wells were washed twice with PBS and stained for 20 minutes with 1 μM DAPI; wells were washed twice and stored in 90% glycerol in PBS until imaging.
# High magnification images were acquired on an Olympus IX81 inverted widefield microscope. For screening imaging, three-color images were acquired at 10× or 20× on a Cellomics ArrayScan VTI (Thermo) and exported to DIB files. At least two images were taken per well for all experiments. […]
# [4] = test system: bacterial inner membrane potential; experiment: TMRM incorporation (inner membrane potential); format: cell-based, Salmonella; conditions: 30 minutes, CCCP 1 mM
# Procedure: as §1, with “Salmonella.” for “Salmonella. Data is representative of 3-4 independent biological replicates. FIG. 20E depicts slope of the linear region of the A486 plot from at least three experiments. Data is normalized to A486/minute. *p<0.05, ***p<0.001, ****p<0.0001 by one-way ANOVA with Dunnett's post-test.”
# To establish whether the three EPMs alter bacterial inner membrane potential, their effect on the incorporation of the voltage-sensitive dye Tetramethylrhodamine methyl ester (TMRM) was observed. […] To establish whether a longer incubation with the EPMs may compromise membrane integrity, the effect of the EPMs on bacterial swimming, an energy intensive activity was monitored over 15 hours (FIGS. 20C, 10). […]
# S.Tm = experiment: Swimming assay in soft agar (proton motive force); format: cell-based, Salmonella enterica serovar Typhimurium; conditions: 50× the MIC (6.25 mM)
# Procedure: One way to inhibit efflux pumps is to disrupt the proton motive force, which is required for transport by some EPs. […] Bacteria were injected into the center of 0.25% agar plates, and 10 μl of compound was added to paper disks on the periphery. […] Also ampicillin and rifampicin were tested. We plotted the halo radius versus the concentration as the fold above the MIC (FIG. 9G). […] Next, it was determined whether PAβN inhibited swimming; PAβN is thought to disrupt membranes over long incubations. […] Finally, the EPMs at […] were tested (FIGS. 9D-F).
# Saturated overnight cultures were diluted to an OD600 of 0.01 in LB and 1 μL was injected into the center of low agar (0.25%) LB plates. Ten microliters of the indicated compounds were added to sterilized Whatman paper disks (diameter 0.7 cm) placed equidistant from the plate center.
compound,measurement,setting,value
OC[C@H]1O[C@@H](n2cnc3cc(Cl)c(Cl)cc32)[C@H](O)[C@@H]1O [DRB],basal infection of macrophages,[1],decreased basal infection
polymyxin B,nitrocefin access to the periplasm,bacterial outer membrane; 1 μg/mL,do not by themselves allow nitrocefin access to the periplasm
same,nitrocefin access to the periplasm,bacterial outer membrane; 5 μg/mL,high enough to allow nitrocefin access to the periplasm
CCn1cc(C(=O)O)c(=O)c2ccc(C)nc21 [Nalidixic acid],sensitivity to freeze-thawing when dissolved in DMSO,[2],sensitive to freeze-thawing
same,"B-score, first replicate of the screen",[3]; 25 μM,−4.41
same,"B-score, second replicate of the screen",[3]; 25 μM,0.70
same,hit status in SAFIRE screen,[3]; Maybridge HitFinder v11 library screened at 25 μM,Nalidixic acid^2
"C[C@@H]1C[C@@H]([C@H](O)CC2CC(=O)NC(=O)C2)C(=O)[C@@H](C)C1 [cyclohexamide, cycloheximide]",basal infection of macrophages,[1],decreased basal infection
"N#CC(C#N)=NNc1cccc(Cl)c1 [CCCP, reference compound]",decrease of TMRM levels versus DMSO,[4],approximately 50 fold
same,halo in swimming assay,S.Tm,creating a halo
